Assay results from patent publication US12257253B2, “Triamterene or nolatrexed for use in the treatment of phenylketonuria” (SOM INNOVATION BIOTECH, S.A., priority 2019, dated 2025).

Key:
Arg261Gln (R261Q) PAH = Arg261Gln (R261Q) PAH (Homo sapiens (Human), UniProt P00439, R261Q); test: Phenylalanine hydroxylase enzyme activity assay in transfected COS7 cells; assay type: cell-based; settings: compound 10 μM (sepiapterin 5 μM), 48 h
Protocol: (§1) 2. Phenylalanine Hydroxylase Enzyme Activity Assay
(§2) This assay was completed in cell culture to analyze the enzyme activity in the presence of compounds. In brief, wild-type or Arg261Gln PAH constructs were transiently expressed in COS7-cells in a 96 well format reflecting the PAH genotype (COS7 cell line has no endogenous PAH). Cells were treated with the compounds at a final concentration of 10 μM and the enzyme activity of PAH was analyzed 48 h after transfection. The effect of the compounds on the residual enzyme activity was determined in comparison to non-treated cells (NCC, only compound solvent final 0.1%). To normalize the cellular background signal non transfected cells (NT control) were treated with compound or solvent equally for 48 h. As a positive control we used sepiapterin, a stable precursor of BH4 (CAS 17094-01-8), stabilized in 100 mM DTT, in a final concentration of 5 μM.
(§3) PAH activities were assayed at 25° C. as previously described (Gersting, S. W., J. Biol. Chem., 2010, 285(40), 30686-30697) with modifications. The standard mixture contained 22.35 mM NaHepes, pH 7.0, […] catalase, 10 μM ferrous ammonium sulphate, and 1 mM L-Phe (L-phenylalanine) final. Assay mixture and cell culture enzyme were pre-incubated for 5 min and the reaction was initiated by the addition of 75 μM BH4 (stabilized in 100 mM dithiothreitol) final, run for 60 min and stopped by acetic acid. The amount of L-tyrosine production was measured and quantified by HPLC, assayed as triplicates.
(§4) The effect of compound on PAH enzyme activity was calculated from triplicates as follows: first the background of the NT cells were subtracted from the transfected cells (treated or NCC) and then the percentage of treated (compound) versus NCC was determined. Enzyme activity greater than 100% represents an increase in the enzyme activity with respect to NCC.

wild-type PAH [1] = target: T1, wild-type PAH (Homo sapiens (Human), UniProt P00439); test: as above; assay type: cell-based; settings: compound 10 μM (sepiapterin 5 μM), 48 h
Protocol: as §1, §2, §3, §4

wild-type PAH [2] = target: T1, wild-type PAH; test: Isothermal titration calorimetry; assay type: binding; settings: ITC
Source text: 4. Isothermal Titration Calorimetry
Isothermal titration calorimetry (ITC) is a quantitative physical technique used to determine binding affinities of small molecules to proteins or other larger molecules [Freyer M. W. and Lewis E. A., Methods in Cell Biology, 2008, vol. 4, Chapter 4, pages 79-113]. The measurement detects changes of heat generated or absorbed when molecules interact, generate binding kinetics and thermodynamic profile of the molecular interaction. The following parameters are determined: KD (equilibrium dissociation constant), N (stoichiometry of the interaction (mol ligand/mol complex)), ΔH (enthalpy change), ΔG (Gibbs energy), T (temperature) and ΔS (entropy change).
ITC experiments were performed at 25° C. using a MicroCal PEAQ-ITC microcalorimeter (Malvern). PAH proteins were prepared in a HEPES buffer (HEPES 20 mM Hepes, 0.2M NaCl, 1 mM DTT, pH 7.0) containing 5% DMSO, in order to match the final DMSO concentration of the compounds dilutions. The protein concentration used (30 μM) was determined using ultraviolet (UV) absorbance at 280 nm. The compounds ([…]) were prepared using the exact same buffer. Twelve injections of 3 μL of compound/ligand were titrated into the sample cell (containing the protein) over 31 min with a stirring speed of 750 rpm. Data was baseline adjusted by subtracting the background obtained from equivalent injections of compound into the buffer solution. The titration curves were analyzed using MicroCal PEAQ-ITC analytics software (version 1.1.0.1262, Malvern Instruments Ltd.) using a model that assumes a set of identical binding sites where the total heat of the solution is calculated as:
[formula] where n is the number of binding sites, Mt is the total protein concentration in the cell, ΔH is the molar heat of ligand binding, Xt is the total concentration of ligand, and K the binding constant (K=1/KD). The heat released per injection (i), ΔQ(i), is calculated following the equation below, which compensates for the volume that is added in each injection (ΔVi). V0 is the initial volume in the cell.
The parameters, n, K, and ΔH are determined using non-linear square fitting using the Levenberg-Marquardt algorithm.

T1 sequence (P00439 whole entry): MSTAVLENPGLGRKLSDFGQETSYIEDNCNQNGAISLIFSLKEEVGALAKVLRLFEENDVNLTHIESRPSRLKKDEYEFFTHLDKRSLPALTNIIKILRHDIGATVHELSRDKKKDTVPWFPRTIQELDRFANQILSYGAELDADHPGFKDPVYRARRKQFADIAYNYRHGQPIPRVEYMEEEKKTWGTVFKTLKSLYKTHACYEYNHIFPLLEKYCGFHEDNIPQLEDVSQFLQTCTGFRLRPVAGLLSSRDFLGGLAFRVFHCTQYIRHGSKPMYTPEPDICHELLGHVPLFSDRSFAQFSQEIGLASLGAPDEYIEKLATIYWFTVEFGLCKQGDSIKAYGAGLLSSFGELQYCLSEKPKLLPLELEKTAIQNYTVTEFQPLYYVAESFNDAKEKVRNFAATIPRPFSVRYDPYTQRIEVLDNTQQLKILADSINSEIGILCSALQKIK
Chain of Arg261Gln (R261Q) PAH (P00439 whole entry R261Q): as the sequence (P00439 whole entry) above, with R261Q counted along it

PAH enzyme activity (L-Tyrosine formation) R261Q PAH Mean (Arg261Gln (R261Q) PAH): 161.48 % NCC
PAH enzyme activity (L-Tyrosine formation) WT PAH Mean (wild-type PAH [1]): 118.98 % NCC
Kd (wild-type PAH [2]; 25° C., WT PAH): 3.03 µM
N (stoichiometry) (wild-type PAH [2]; 25° C., WT PAH): 0.726 ± 0.00 sites
ΔG (wild-type PAH [2]; 25° C., WT PAH): -31.5 kJ/mol
ΔH (wild-type PAH [2]; 25° C., WT PAH): -23.2 ± 0.7 kJ/mol
−TΔS (wild-type PAH [2]; 25° C., WT PAH): -8.32 kJ/mol
Kd (in words) (wild-type PAH [2]; recombinant PAH): low micromolar range
Compound: Nc1nc(N)c2nc(-c3ccccc3)c(N)nc2n1 [Triamterene, 2,4,7-triamino-6-phenylpteridine]
